# Patent US4822774A, “Physiologically active peptide” (Eisai Co., Ltd., priority 1986, dated 1989)
# Test system: Muscle of Bronchus Removed from Guinea Pig
# Details: guinea pig trachea, 6.5×10^-6 M histamine; samples at 10^-5 M; area value of VIP--NH2 taken as 100 %
# Text: A. Determination on Relaxation of Muscle of Bronchus Removed from Guinea Pig
# The juglar vein of a male guinea pig weighing 300 g or more is cut, causing the guinea pig to be bled to death. The guinea pig undergoes thoracotomy. Immediately after the thoracotomy, 3 cm of the trachea is taken out. The trachea is immediately put in a Krebs solution. It is then cut into seven equal rings, and the cartilages are connected to one another with a cotton yarn to form a chain. Subsequently, the smooth muscle parts and cartilages opposite them are cut, so that the smooth muscle parts can be connected to one another. The preparation thus prepared is placed in an isothermic glass cell having an internal capacity of about 7 ml and suspended from above. The lower part of the preparation is fixed, while the upper part is connected to an isometric transducer, to which 0.5 g of a load has been applied, in order to determine the relaxation reaction. Sufficient amounts of 95 % oxygen and 5 % carbon dioxide gas are blown into the preparation. Further, a Krebs solution of 37° C. containing 6.5×10^-6 M histamine is dropped on the preparation from above at a flow rate of 3.3 ml/min. The relaxation reaction takes place to an extent proportional to the amount of a sample added to the dropped solution. By utilizing this relationship, the relaxation activity against bronchial smooth muscle with respect to the substance of the present invention is compared with that of VIP--NH2. VIP--NH2 is used at a concentration of 10^-5 M and dropped in amounts of 40 μl and 80 μl. The substance of the present invention is also used at a concentration of 10^- 5 M and dropped in amounts of 10 μl and 20 μl. The value of the area (height×time) in relaxation of each case is determined. The specific activities are obtained by taking the area value of VIP--NH2 as 100 % and determining the relative ratio of the area value of each use. Thus, the relaxation reactions are compared by the four-point assay method, with respect to the above-mentioned determination method, reference may be made to the following articles (e) and (f): […]
row,SMILES,"A: specific activity (%) obtained by method A (relaxation of bronchial smooth muscle, area value relative to VIP-NH2)"
1,CC[C@H](C)[C@H](NC(=O)[C@H](CO)NC(=O)[C@H](CC(N)=O)NC(=O)[C@H](CC(C)C)NC(=O)[C@H](Cc1ccc(O)cc1)NC(=O)[C@H](CCCCN)NC(=O)[C@H](CCCCN)NC(=O)[C@@H](NC(=O)[C@H](C)NC(=O)[C@H](CCSC)NC(=O)[C@H](CCC(N)=O)NC(=O)[C@H](CCCCN)NC(=O)[C@H](CCCNC(=N)N)NC(=O)[C@H](CC(C)C)NC(=O)[C@H](CCCNC(=N)N)NC(=O)[C@@H](NC(=O)[C@H](Cc1ccc(O)cc1)NC(=O)[C@H](CC(N)=O)NC(=O)[C@H](CC(=O)O)NC(=O)[C@@H](NC(=O)[C@H](Cc1ccccc1)NC(=O)[C@@H](NC(=O)[C@H](C)NC(=O)[C@H](CC(=O)O)NC(=O)[C@H](CO)NC(=O)[C@@H](N)Cc1c[nH]cn1)C(C)C)[C@@H](C)O)[C@@H](C)O)C(C)C)C(=O)N[C@@H](CC(C)C)C(=O)N[C@@H](CC(N)=O)C(N)=O [VIP - NH2],100%
2,CC[C@H](C)[C@H](NC(=O)[C@H](CO)NC(=O)[C@H](CC(N)=O)NC(=O)[C@H](CC(C)C)NC(=O)[C@H](Cc1ccc(O)cc1)NC(=O)[C@H](CCCCN)NC(=O)[C@H](CCCCN)NC(=O)[C@@H](NC(=O)[C@H](C)NC(=O)[C@H](CCSC)NC(=O)[C@H](CCC(N)=O)NC(=O)[C@H](CCCCN)NC(=O)[C@H](CCCNC(=N)N)NC(=O)[C@H](CC(C)C)NC(=O)[C@H](CCCNC(=N)N)NC(=O)[C@@H](NC(=O)[C@H](Cc1ccc(O)cc1)NC(=O)[C@H](CC(N)=O)NC(=O)[C@H](CC(=O)O)NC(=O)[C@@H](NC(=O)[C@H](Cc1ccccc1)NC(=O)[C@@H](NC(=O)[C@H](C)NC(=O)[C@H](CC(=O)O)NC(=O)[C@H](CO)NC(=O)[C@@H](N)Cc1c[nH]cn1)C(C)C)[C@@H](C)O)[C@@H](C)O)C(C)C)C(=O)N[C@@H](CC(C)C)C(=O)N[C@@H](CC(N)=O)C(=O)O [VIP - OH],60%
3,CC[C@H](C)[C@H](NC(=O)[C@H](CO)NC(=O)[C@H](CC(N)=O)NC(=O)[C@H](CC(C)C)NC(=O)[C@H](Cc1ccc(O)cc1)NC(=O)[C@H](CCCCN)NC(=O)[C@H](CCCCN)NC(=O)[C@@H](NC(=O)[C@H](C)NC(=O)[C@H](CCSC)NC(=O)[C@H](CCC(N)=O)NC(=O)[C@H](CCCCN)NC(=O)[C@H](CCCNC(=N)N)NC(=O)[C@H](CC(C)C)NC(=O)[C@H](CCCNC(=N)N)NC(=O)[C@@H](NC(=O)[C@H](Cc1ccc(O)cc1)NC(=O)[C@H](CC(N)=O)NC(=O)[C@H](CC(=O)O)NC(=O)[C@@H](NC(=O)[C@H](Cc1ccccc1)NC(=O)[C@@H](NC(=O)[C@H](C)NC(=O)[C@H](CC(=O)O)NC(=O)[C@H](CO)NC(=O)[C@@H](N)Cc1c[nH]cn1)C(C)C)[C@@H](C)O)[C@@H](C)O)C(C)C)C(=O)N[C@@H](CC(C)C)C(=O)N[C@@H](CC(N)=O)C(=O)NCC(=O)N[C@@H](CCCCN)C(=O)O [X=Met Y=Lys--OH],300%
